Measurements from US11596639B2, “Substituted indole Mcl-1 inhibitors” (Vanderbilt University, priority 2016, dated 2023).

Key:
Mcl-1 = Mcl-1 (Homo sapiens (Human), UniProt Q07820); assay: Fluorescence polarization anisotropy (FPA) competition assay, FITC-Bak or FITC-Bim BH3 peptide; type: binding; conditions: read-out: Ki for Inhibition of Mcl-1 by FPA assay
[1] = tested on: H929 human cancer cell lines; assay: Cellular viability / proliferation (Cell TiterGlo, 72 h); type: cell-based; conditions: Homo sapiens, NCI-H929, 72 h, read-out: GI50 on cellular proliferation of H929 human cancer cell lines, H929 cells, 72 h, Cell TiterGlo, 10% FBS
Procedure, shortened: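 H929 cells plated at 1,000/well in 10% FBS medium received a 2-fold serial compound dilution (top 50 μM, DMSO <1%) 24 h later. After 72 h, viability was read by CellTiter-Glo luminescence. IC50 came from a four-parameter fit.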

Sequence of Mcl-1 (Q07820 172-327): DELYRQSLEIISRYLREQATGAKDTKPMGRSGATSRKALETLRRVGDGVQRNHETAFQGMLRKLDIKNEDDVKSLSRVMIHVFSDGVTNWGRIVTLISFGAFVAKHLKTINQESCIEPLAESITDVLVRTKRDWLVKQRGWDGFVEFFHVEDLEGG

Row | SMILES | Ki (Mcl-1) [nM] | GI50 [1] [nM]
1 | CC[C@@H]1Cn2c(c(CCCOc3cc(C)c(Cl)c(C)c3)c3ccc(Cl)c(-c4c(C)nn(C)c4C)c32)C(=O)N1c1ccc(C(=O)O)c2ncccc12 [Example 19, (R)-5-(7-chloro-10-(3-(4-chloro-3,5-dimethylphenoxy)propyl)-3-ethyl-1-oxo-6-(1,3,5-trimethyl-1H-pyrazol-4-yl)-3,4-dihydropyrazino[1,2-a]indol-2(1H)-yl)quinoline-8-carboxylic acid] | 1.9 | 4100
2 | Cc1cc(OCCCc2c3n(c4c(-c5c(C)nn(C)c5C)c(Cl)ccc24)[C@H](C)CN(c2cn(COCC[Si](C)(C)C)c4ccc(C(=O)O)cc24)C3=O)cc(C)c1Cl [Example 231, (R)-3-(7-Chloro-10-(3-(4-chloro-3,5-dimethylphenoxy)propyl)-4-methyl-1-oxo-6-(1,3,5-trimethyl-1H-pyrazol-4-yl)-3,4-dihydropyrazino[1,2-a]indol-2(1H)-yl)-1-((2-(trimethylsilyl)ethoxy)methyl)-1H-indole-5-carboxylic acid] | 1.2 | 2700
3 | Cc1cc(OCCCc2c3n(c4c(-c5c(C)nn(CC(=O)O)c5C)c(Cl)ccc24)CCCN(c2cccc4cccnc24)C3=O)cc(C)c1Cl [Example 144, 2-(4-(8-Chloro-11-(3-(4-chloro-3,5-dimethylphenoxy)propyl)-1-oxo-2-(quinolin-8-yl)-2,3,4,5-tetrahydro-1H-[1,4]diazepino[1,2-a]indol-7-yl)-3,5-dimethyl-1H-pyrazol-1-yl)acetic acid] | < 1 | 6500
4 | Cc1cc(OCCCc2c3n(c4c(-c5c(C)nn(C)c5C)c(Cl)ccc24)[C@H](C)CN(c2c(C)n(C)c4ccc(C(=O)O)cc24)C3=O)cc(C)c1Cl [Example 275, 3-[(4R)-7-chloro-10-[3-(4-chloro-3,5-dimethyl-phenoxy)propyl]-4-methyl-1-oxo-6-(1,3,5-trimethylpyrazol-4-yl)-3,4-dihydropyrazino[1,2-a]indol-2-yl]-1,2-dimethyl-indole-5-carboxylic acid] | < 1 | 370
5 | Cc1cc(OCCCc2c3n(c4c(-c5c(C)nn(C)c5C)c(Cl)ccc24)[C@H](C)CN(c2cccc4cc(C(N)=O)n(Cc5ccccn5)c24)C3=O)cc(C)c1Cl [Example 385, (R)-7-(7-Chloro-10-(3-(4-chloro-3,5-dimethylphenoxy)propyl)-4-methyl-1-oxo-6-(1,3,5-trimethyl-1H-pyrazol-4-yl)-3,4-dihydropyrazino[1,2-a]indol-2(1H)-yl)-1-(pyridin-2-ylmethyl)-1H-indole-2-carboxamide] | 4.1 | 510
6 | Cc1cccc(OCCCc2c3n(c4c(-c5c(C)nn(C)c5C)c(Cl)ccc24)[C@H](C)CN(c2cn(C)c4ccc(C(=O)O)cc24)C3=O)c1 [Example 405, (R)-3-(7-Chloro-4-methyl-1-oxo-10-(3-(m-tolyloxy)propyl)-6-(1,3,5-trimethyl-1H-pyrazol-4-yl)-3,4-dihydropyrazino[1,2-a]indol-2(1H)-yl)-1-methyl-1H-indole-5-carboxylic acid] | < 1 | 460
7 | Cc1cc(OCCCc2c3n(c4c(-c5c(C)nn(C)c5C)c(Cl)ccc24)[C@H](C)CN(c2cn(C)c4ccc(-c5nc[nH]n5)cc24)C3=O)cc(C)c1Cl [Example 420, (R)-7-Chloro-10-(3-(4-chloro-3,5-dimethylphenoxy)propyl)-4-methyl-2-(1-methyl-5-(1H-1,2,4-triazol-3-yl)-1H-indol-3-yl)-6-(1,3,5-trimethyl-1H-pyrazol-4-yl)-3,4-dihydropyrazino[1,2-a]indol-1(2H)-one] | 2 | 280
8 | Cc1cc(OCCCc2c3n(c4c(-c5c(C)nn(C)c5C)c(Cl)ccc24)[C@H](C)CN(c2cccc4cc(C(=O)O)ccc24)C3=O)cc(C)c1Cl [Example 186, (R)-5-(7-Chloro-10-(3-(4-chloro-3,5-dimethylphenoxy)propyl)-4-methyl-1-oxo-6-(1,3,5-trimethyl-1H-pyrazol-4-yl)-3,4-dihydropyrazino[1,2-a]indol-2(1H)-yl)-2-naphthoic acid] | < 1 | < 200
9 | Cc1cc(OCCCc2c3n(c4c(-c5c(C)nn(C)c5C)c(Cl)ccc24)[C@H](C)CN(c2cn(C)c4ccc(-c5ncn(CC6CC6)n5)cc24)C3=O)cc(C)c1Cl [Example 462, (R)-7-Chloro-10-(3-(4-chloro-3,5-dimethylphenoxy)propyl)-2-(5-(1-(cyclopropylmethyl)-1H-1,2,4-triazol-3-yl)-1-methyl-1H-indol-3-yl)-4-methyl-6-(1,3,5-trimethyl-1H-pyrazol-4-yl)-3,4-dihydropyrazino[1,2-a]indol-1(2H)-one] | 2 | 990
10 | Cc1cc(OCCCc2c3n(c4c(-c5c(C)nn(C)c5C)c(Cl)ccc24)CCCN(c2cc(C(=O)O)cc4c2N(C)CCO4)C3=O)cc(C)c1Cl [Example 61, 5-[8-chloro-11-[3-(4-chloro-3,5-dimethyl-phenoxy)propyl]-1-oxo-7-(1,3,5-trimethylpyrazol-4-yl)-4,5-dihydro-3H-[1,4]diazepino[1,2-a]indol-2-yl]-4-methyl-2,3-dihydro-1,4-benzoxazine-7-carboxylic acid] | 5.7 | 8200
11 | Cc1cc(OCCCc2c3n(c4c(-c5c(C)nn(C)c5C)c(Cl)ccc24)[C@H](C)CN(c2cc(C(=O)O)c4cnn(C)c4c2)C3=O)cc(C)c1Cl [Example 53, (R)-6-(7-chloro-10-(3-(4-chloro-3,5-dimethylphenoxy)propyl)-4-methyl-1-oxo-6-(1,3,5-trimethyl-1H-pyrazol-4-yl)-3,4-dihydropyrazino[1,2-a]indol-2(1H)-yl)-1-methyl-1H-indazole-4-carboxylic acid] | < 1 | 500
12 | COCCOc1cc(N2C[C@@H](C)n3c(c(CCCOc4cc(C)c(Cl)c(C)c4)c4ccc(Cl)c(-c5c(C)nn(C)c5C)c43)C2=O)c2c(c1)cc(C(=O)O)n2C [Example 461, (R)-7-(7-Chloro-10-(3-(4-chloro-3,5-dimethylphenoxy)propyl)-4-methyl-1-oxo-6-(1,3,5-trimethyl-1H-pyrazol-4-yl)-3,4-dihydropyrazino[1,2-a]indol-2(1H)-yl)-5-(2-methoxyethoxy)-1-methyl-1H-indole-2-carboxylic acid] | < 1 | < 200
13 | Cc1cc(OCCCc2c3n(c4c(-c5c(C)nn(C)c5C)c(Cl)ccc24)[C@H](C)CN(c2cccc4c2cc(C#N)n4C)C3=O)cc(C)c1Cl [Example 301, 4-[(4R)-7-chloro-10-[3-(4-chloro-3,5-dimethyl-phenoxy)propyl]-4-methyl-1-oxo-6-(1,3,5-trimethylpyrazol-4-yl)-3,4-dihydropyrazino[1,2-a]indol-2-yl]-1-methyl-indole-2-carbonitrile] | 2.8 | 8300
14 | Cc1cc(OCCCc2c3n(c4c(-c5c(C)nn(C)c5C)c(Cl)ccc24)[C@H](C)CN(c2nn(C)c4ccc(C(=O)O)cc24)C3=O)cc(C)c1Cl [Example 163, (R)-3-(7-Chloro-10-(3-(4-chloro-3,5-dimethylphenoxy)propyl)-4-methyl-1-oxo-6-(1,3,5-trimethyl-1H-pyrazol-4-yl)-3,4-dihydropyrazino[1,2-a]indol-2(1H)-yl)-1-methyl-1H-indazole-5-carboxylic acid] | < 1 | 260
